From publication PMC12541610 (Acta Pharmaceutica Sinica. B, 2025)

Target: ATP synthase F1 subunit alpha (ATP5A1) (Mus musculus, UniProt Q03265)
Assay: intrinsic fluorescence titration of purified protein
Assay type: binding

ATP synthase F1 subunit alpha (ATP5A1), sequence (Q03265 whole entry): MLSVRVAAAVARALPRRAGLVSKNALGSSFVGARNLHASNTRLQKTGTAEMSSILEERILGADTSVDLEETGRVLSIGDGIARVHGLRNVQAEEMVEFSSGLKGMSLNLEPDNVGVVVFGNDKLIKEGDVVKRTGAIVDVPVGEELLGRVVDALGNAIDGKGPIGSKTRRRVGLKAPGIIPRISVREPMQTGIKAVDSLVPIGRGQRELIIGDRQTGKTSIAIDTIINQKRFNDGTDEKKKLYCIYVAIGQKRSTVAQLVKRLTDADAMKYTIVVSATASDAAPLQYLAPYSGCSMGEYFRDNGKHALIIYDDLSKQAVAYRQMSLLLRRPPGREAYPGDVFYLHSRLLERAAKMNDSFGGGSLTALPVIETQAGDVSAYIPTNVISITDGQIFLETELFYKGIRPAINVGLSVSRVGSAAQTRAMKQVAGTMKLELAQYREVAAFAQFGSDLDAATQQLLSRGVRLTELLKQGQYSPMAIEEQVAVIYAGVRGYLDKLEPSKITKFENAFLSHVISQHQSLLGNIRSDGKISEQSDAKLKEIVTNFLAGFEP

C=C(C)[C@@H]1CCC(C)=C[C@H]1c1c(O)cc(CCCCC)cc1O [Cannabidiol] gave a Kd of 4.9 ± 1.2 µM.
